Experiments:
Type in all cases: functional
Conditions in all cases: read-out: IZ
Colletotrichum falcatum [1] = assay: Antifungal activity against Glomerella tucumanensis at 300 ug/ml after 48 hr
Colletotrichum falcatum [2] = assay: Antifungal activity against Glomerella tucumanensis at 600 ug/ml after 48 hr
Colletotrichum falcatum [3] = assay: Antifungal activity against Glomerella tucumanensis at 1200 ug/ml after 48 hr
Bacillus subtilis [4] = assay: Antibacterial activity against Bacillus subtilis at 900 ug/ml after overnight incubation
Candida albicans [5] = assay: Antifungal activity against Candida albicans at 900 ug/ml after 48 hr
Fusarium oxysporum [6] = assay: Antifungal activity against Fusarium oxysporum at 900 ug/ml after 48 hr
Bacillus pumilus [7] = assay: Antibacterial activity against Bacillus pumilus at 900 ug/ml after overnight incubation
Klebsiella aerogenes [8] = assay: Antibacterial activity against Enterobacter aerogenes at 600 ug/ml after overnight incubation
Streptococcus pyogenes [9] = assay: Antibacterial activity against Streptococcus pyogenes at 900 ug/ml after overnight incubation
Exserohilum rostratum [10] = assay: Antifungal activity against Setosphaeria rostrata at 900 ug/ml after 48 hr
Escherichia coli [11] = assay: Antibacterial activity against Escherichia coli at 600 ug/ml after overnight incubation
Priestia megaterium [12] = assay: Antibacterial activity against Bacillus megaterium at 600 ug/ml after overnight incubation
Candida albicans [13] = assay: Antifungal activity against Candida albicans at 600 ug/ml after 48 hr
Colletotrichum falcatum [14] = assay: Antifungal activity against Glomerella tucumanensis at 900 ug/ml after 48 hr
Fusarium oxysporum [15] = assay: Antifungal activity against Fusarium oxysporum at 1200 ug/ml after 48 hr
Proteus vulgaris [16] = assay: Antibacterial activity against Proteus vulgaris at 900 ug/ml after overnight incubation
Staphylococcus aureus [17] = assay: Antibacterial activity against Staphylococcus aureus at 900 ug/ml after overnight incubation
Klebsiella pneumoniae [18] = assay: Antibacterial activity against Klebsiella pneumoniae at 900 ug/ml after overnight incubation
Staphylococcus aureus [19] = assay: Antibacterial activity against Staphylococcus aureus at 600 ug/ml after overnight incubation
Priestia megaterium [20] = assay: Antibacterial activity against Bacillus megaterium at 900 ug/ml after overnight incubation
Exserohilum rostratum [21] = assay: Antifungal activity against Setosphaeria rostrata at 1200 ug/ml after 48 hr
Proteus vulgaris [22] = assay: Antibacterial activity against Proteus vulgaris at 600 ug/ml after overnight incubation
Fusarium oxysporum [23] = assay: Antifungal activity against Fusarium oxysporum at 300 ug/ml after 48 hr
Bacillus pumilus [24] = assay: Antibacterial activity against Bacillus pumilus at 600 ug/ml after overnight incubation
Klebsiella aerogenes [25] = assay: Antibacterial activity against Enterobacter aerogenes at 900 ug/ml after overnight incubation
Enterococcus faecalis [26] = assay: Antibacterial activity against Enterococcus faecalis at 900 ug/ml after overnight incubation
Exserohilum rostratum [27] = assay: Antifungal activity against Setosphaeria rostrata at 600 ug/ml after 48 hr
Bacillus subtilis [28] = assay: Antibacterial activity against Bacillus subtilis at 600 ug/ml after overnight incubation
Enterococcus faecalis [29] = assay: Antibacterial activity against Enterococcus faecalis at 600 ug/ml after overnight incubation
Streptococcus pyogenes [30] = assay: Antibacterial activity against Streptococcus pyogenes at 600 ug/ml after overnight incubation
Candida albicans [31] = assay: Antifungal activity against Candida albicans at 1200 ug/ml after 48 hr
Candida albicans [32] = assay: Antifungal activity against Candida albicans at 300 ug/ml after 48 hr
Exserohilum rostratum [33] = assay: Antifungal activity against Setosphaeria rostrata at 300 ug/ml after 48 hr
Escherichia coli [34] = assay: Antibacterial activity against Escherichia coli at 900 ug/ml after overnight incubation
Fusarium oxysporum [35] = assay: Antifungal activity against Fusarium oxysporum at 600 ug/ml after 48 hr
Klebsiella pneumoniae [36] = assay: Antibacterial activity against Klebsiella pneumoniae at 600 ug/ml after overnight incubation

SMILES	zone of inhibition at 300 µg/mL (Colletotrichum falcatum [1])	zone of inhibition at 600 µg/mL (Colletotrichum falcatum [2])	zone of inhibition at 1200 µg/mL (Colletotrichum falcatum [3])	zone of inhibition at 900 µg/mL (Bacillus subtilis [4])	zone of inhibition at 900 µg/mL (Candida albicans [5])	zone of inhibition at 900 µg/mL (Fusarium oxysporum [6])	zone of inhibition at 900 µg/mL (Bacillus pumilus [7])	zone of inhibition at 600 µg/mL (Klebsiella aerogenes [8])	zone of inhibition at 900 µg/mL (Streptococcus pyogenes [9])	zone of inhibition at 900 µg/mL (Exserohilum rostratum [10])	zone of inhibition at 600 µg/mL (Escherichia coli [11])	zone of inhibition at 600 µg/mL (Priestia megaterium [12])	zone of inhibition at 600 µg/mL (Candida albicans [13])	zone of inhibition at 900 µg/mL (Colletotrichum falcatum [14])	zone of inhibition at 1200 µg/mL (Fusarium oxysporum [15])	zone of inhibition at 900 µg/mL (Proteus vulgaris [16])	zone of inhibition at 900 µg/mL (Staphylococcus aureus [17])	zone of inhibition at 900 µg/mL (Klebsiella pneumoniae [18])	zone of inhibition at 600 µg/mL (Staphylococcus aureus [19])	zone of inhibition at 900 µg/mL (Priestia megaterium [20])	other results
c1ccc(-c2nnc(CN3CCC(n4nc5ccccc5n4)CC3)o2)cc1	3.56 mm	7.26 mm	27.9 mm	5.45 mm	13.2 mm	10.2 mm	8.65 mm	5.82 mm	8.25 mm	11.8 mm	2.24 mm	5.82 mm	6.05 mm	13.2 mm	21.3 mm	7.5 mm	8.25 mm	6.56 mm	3.26 mm	11.4 mm	zone of inhibition at 1200 µg/mL (Exserohilum rostratum [21]): 24 mm; zone of inhibition at 600 µg/mL (Proteus vulgaris [22]): 3.8 mm; zone of inhibition at 300 µg/mL (Fusarium oxysporum [23]): 2.25 mm; zone of inhibition at 600 µg/mL (Bacillus pumilus [24]): 4.25 mm; zone of inhibition at 900 µg/mL (Klebsiella aerogenes [25]): 11.2 mm; zone of inhibition at 900 µg/mL (Enterococcus faecalis [26]): 9.25 mm; zone of inhibition at 600 µg/mL (Exserohilum rostratum [27]): 6.25 mm; zone of inhibition at 600 µg/mL (Bacillus subtilis [28]): 2.65 mm; zone of inhibition at 600 µg/mL (Enterococcus faecalis [29]): 4.25 mm; zone of inhibition at 600 µg/mL (Streptococcus pyogenes [30]): 4.01 mm; zone of inhibition at 1200 µg/mL (Candida albicans [31]): 24.2 mm; zone of inhibition at 300 µg/mL (Candida albicans [32]): 3.12 mm; zone of inhibition at 300 µg/mL (Exserohilum rostratum [33]): 3.15 mm; zone of inhibition at 900 µg/mL (Escherichia coli [34]): 4.85 mm; zone of inhibition at 600 µg/mL (Fusarium oxysporum [35]): 4.85 mm; zone of inhibition at 600 µg/mL (Klebsiella pneumoniae [36]): 3.35 mm
Fc1cccc(-c2nnc(CN3CCC(n4nc5ccccc5n4)CC3)o2)c1F	4.82 mm	9.25 mm	33.9 mm	9.56 mm	9.86 mm	13.2 mm	7.24 mm	2.09 mm	3.15 mm	15 mm	3.25 mm	5.86 mm	5.25 mm	17.8 mm	25.4 mm	8.74 mm	7.56 mm	13.2 mm	4.25 mm	11.2 mm	zone of inhibition at 1200 µg/mL (Exserohilum rostratum [21]): 29.8 mm; zone of inhibition at 600 µg/mL (Proteus vulgaris [22]): 4.56 mm; zone of inhibition at 300 µg/mL (Fusarium oxysporum [23]): 4.21 mm; zone of inhibition at 600 µg/mL (Bacillus pumilus [24]): 3.35 mm; zone of inhibition at 900 µg/mL (Klebsiella aerogenes [25]): 5.45 mm; zone of inhibition at 900 µg/mL (Enterococcus faecalis [26]): 5.36 mm; zone of inhibition at 600 µg/mL (Exserohilum rostratum [27]): 7.86 mm; zone of inhibition at 600 µg/mL (Bacillus subtilis [28]): 4.8 mm; zone of inhibition at 600 µg/mL (Enterococcus faecalis [29]): 2.35 mm; zone of inhibition at 600 µg/mL (Streptococcus pyogenes [30]): 1.13 mm; zone of inhibition at 1200 µg/mL (Candida albicans [31]): 17.2 mm; zone of inhibition at 300 µg/mL (Candida albicans [32]): 3.33 mm; zone of inhibition at 300 µg/mL (Exserohilum rostratum [33]): 3.81 mm; zone of inhibition at 900 µg/mL (Escherichia coli [34]): 7.15 mm; zone of inhibition at 600 µg/mL (Fusarium oxysporum [35]): 7.01 mm; zone of inhibition at 600 µg/mL (Klebsiella pneumoniae [36]): 6.23 mm
Cc1c(Br)cccc1-c1nnc(CN2CCC(n3nc4ccccc4n3)CC2)o1	3.97 mm	8.25 mm	29.3 mm	9.8 mm	9.36 mm	13.3 mm	8.54 mm	3.65 mm	9.25 mm	11.3 mm	5.23 mm	5.3 mm	4.18 mm	15.4 mm	24.9 mm	7.05 mm	10 mm	10.2 mm	4.8 mm	10.3 mm	zone of inhibition at 1200 µg/mL (Exserohilum rostratum [21]): 23.9 mm; zone of inhibition at 600 µg/mL (Proteus vulgaris [22]): 3.45 mm; zone of inhibition at 300 µg/mL (Fusarium oxysporum [23]): 3.42 mm; zone of inhibition at 600 µg/mL (Bacillus pumilus [24]): 4.29 mm; zone of inhibition at 900 µg/mL (Klebsiella aerogenes [25]): 7.56 mm; zone of inhibition at 900 µg/mL (Enterococcus faecalis [26]): 12.1 mm; zone of inhibition at 600 µg/mL (Exserohilum rostratum [27]): 5.25 mm; zone of inhibition at 600 µg/mL (Bacillus subtilis [28]): 4.8 mm; zone of inhibition at 600 µg/mL (Enterococcus faecalis [29]): 5.92 mm; zone of inhibition at 600 µg/mL (Streptococcus pyogenes [30]): 4.82 mm; zone of inhibition at 1200 µg/mL (Candida albicans [31]): 17.9 mm; zone of inhibition at 300 µg/mL (Candida albicans [32]): 2.09 mm; zone of inhibition at 300 µg/mL (Exserohilum rostratum [33]): 2.98 mm; zone of inhibition at 900 µg/mL (Escherichia coli [34]): 9.46 mm; zone of inhibition at 600 µg/mL (Fusarium oxysporum [35]): 6.56 mm; zone of inhibition at 600 µg/mL (Klebsiella pneumoniae [36]): 5.25 mm
CCC(C)n1ncn(-c2ccc(N3CCN(c4ccc(OCC5COC(Cn6cncn6)(c6ccc(Cl)cc6Cl)O5)cc4)CC3)cc2)c1=O (centres undefined) [ITRACONAZOLE]	4.67 mm	9.34 mm	33.4 mm	–	12 mm	20 mm	–	–	–	14.8 mm	–	–	5.35 mm	18.3 mm	39.6 mm	–	–	–	–	–	zone of inhibition at 1200 µg/mL (Exserohilum rostratum [21]): 29.6 mm; zone of inhibition at 300 µg/mL (Fusarium oxysporum [23]): 4.82 mm; zone of inhibition at 600 µg/mL (Exserohilum rostratum [27]): 7.56 mm; zone of inhibition at 1200 µg/mL (Candida albicans [31]): 25.1 mm; zone of inhibition at 300 µg/mL (Candida albicans [32]): 2.62 mm; zone of inhibition at 300 µg/mL (Exserohilum rostratum [33]): 3.58 mm; zone of inhibition at 600 µg/mL (Fusarium oxysporum [35]): 10.8 mm
CN[C@@H]1[C@H](O[C@H]2[C@H](O[C@H]3[C@H](O)[C@@H](O)[C@H](N=C(N)N)[C@@H](O)[C@@H]3N=C(N)N)O[C@@H](C)[C@]2(O)C=O)O[C@@H](CO)[C@H](O)[C@H]1O [STREPTOMYCIN]	–	–	–	16.2 mm	–	–	14.5 mm	4.47 mm	16.5 mm	–	3.06 mm	6.23 mm	–	–	–	16.1 mm	20 mm	6.54 mm	10.3 mm	12.8 mm	zone of inhibition at 600 µg/mL (Proteus vulgaris [22]): 8.9 mm; zone of inhibition at 600 µg/mL (Bacillus pumilus [24]): 7.25 mm; zone of inhibition at 900 µg/mL (Klebsiella aerogenes [25]): 8.76 mm; zone of inhibition at 900 µg/mL (Enterococcus faecalis [26]): 20.3 mm; zone of inhibition at 600 µg/mL (Bacillus subtilis [28]): 8.44 mm; zone of inhibition at 600 µg/mL (Enterococcus faecalis [29]): 12.8 mm; zone of inhibition at 600 µg/mL (Streptococcus pyogenes [30]): 8.91 mm; zone of inhibition at 900 µg/mL (Escherichia coli [34]): 6.14 mm; zone of inhibition at 600 µg/mL (Klebsiella pneumoniae [36]): 3.24 mm
